From patent US7276519B2, “Thieno[3,2-b]pyridine-6-carbonitriles and thieno[2,3-b]pyridine-5-carbonitriles as protein kinase inhibitors” (Wyeth, priority 2002, dated 2007)
Several values for one entry are separate records, joined by “and”; a condition that tells them apart may be missing. Equal entries are not always repeated. Where two headings read alike, the source gives them in different places.

What was measured:
[1] = tested on: Rat2 fibroblasts stably transformed with v-Src/Hu c-Src fusion gene; assay: Anchorage independent Src-transformed fibroblast proliferation assay; format: cell-based, rat
Description: Anchorage Independent Src-Transformed Fibroblast Proliferation Assay Rat2 fibroblasts stably transformed with a plasmid containing a CMV promotor controlled v-Src/Hu c-Src fusion gene in which the catalytic domain of human c-Src was inserted in place of the v-Src catalytic domain in the v-Src gene are used for the measurement of src dependent suspension growth. […] Multiple entries for a given compound indicate that it was tested multiple times.

[2] = target: T1, Rat2 fibroblasts stably transformed with v-Src/Hu Lck fusion gene (Homo sapiens, UniProt P06239, cells depend on it, form not given); assay: Anchorage independent Lck-transformed fibroblast proliferation assay; format: cell-based, rat; conditions: Table 3; read-out: Lck Cells IC50
T1 construct: Candidates are e.g. Schmidt-Ruppin A (P00524) or Prague C (P00526); The human Lck catalytic domain stands in place of the v-Src catalytic domain
Description: Anchorage Independent Lck-Transformed Fibroblast Proliferation Assay
Rat2 fibroblasts stably transformed with a plasmid containing a CMV promotor controlled v-Src/Hu Lck fusion gene in which the catalytic domain of human Lck was inserted in place of the v-Src catalytic domain in the v-Src gene are used for the measurement of src dependent suspension growth. Ultra-low cluster plates (Costar # 3474) are seeded with 10,000 cells per well on Day 1. Compound is added in serial two-fold dilutions from 10 micromolar to 0.009 micromolar on Day 2 and MTS reagent (Promega) is added on Day 5 (100 microliters of MTS/medium mix+100 microliters of medium already on the cells and the absorbance is measured at 490 nm. The results are analyzed as follows to yield an IC50 for proliferation (micromolar units) as follow: % inhibition=(Abs490 nm sample−blank)/(Abs490 nm no cmpd control−blank)×100%. The results obtained for representative compounds of this invention are listed in Table 2. Multiple entries for a given compound indicate that it was tested multiple times.

[3] = target: T2, Recombinant human Src enzyme (Homo sapiens, UniProt P12931); assay: Src kinase assay (LANCE FRET); format: biochemical; conditions: Table 3; 100 μM ATP, biotinylated Cdk1 peptide substrate
T2 construct: purchased PanVera P3044
Description: Recombinant human Src enzyme was obtained from PanVera (P3044). […] Homogeneous fluorescence resonance energy transfer kinase assays were performed using the europium/APC detection format (LANCE, Perkin Elmer). Src enzyme (10 ng) was mixed with biotinylated peptide (final concentration 2 μM), 50 mM Hepes (pH 7.5), 10 mM MgCl2, 20 μg/ml BSA, 0.001% Brij-35 (sigma), 100 μM ATP, 1% DMSO. The kinase reaction was incubated for 70 min at 37° C. The reaction was stopped with EDTA at a final concentration of 30 mM EDTA/25 mM Hepes (pH 7.5)/10 μg/ml BSA. The mixture was combined with Eu-labeled anti-phosphotyrosine antibody PT66 (Perkin Elmer, AD0068) and Streptavidin Surelight-APC (Perkin Elmer, CR130-100) in 50 mM Hepes (pH 7.5)/20 μg/ml BSA, and incubated for 30 min according to manufacturer's specifications. […] Multiple entries for a given compound indicate that it was tested multiple times.

[4] = Rattus norvegicus, Rat2, read-out: Src Cells IC50 μM or % inhib at 10 μM (IC50 values), Table 3
[5] = read-out: Src Cells IC50 μM or % inhib at 10 μM (IC50 values), Table 3
[6] = Rattus norvegicus, Rat2, Table 3, read-out: Src Cells IC50 μM or % inhib at 10 μM (IC50 values)
[7] = Table 3, read-out: Src Cells IC50 μM or % inhib at 10 μM (IC50 values)

T1 sequence (P06239 whole entry, change not shown, the tested form may be a part): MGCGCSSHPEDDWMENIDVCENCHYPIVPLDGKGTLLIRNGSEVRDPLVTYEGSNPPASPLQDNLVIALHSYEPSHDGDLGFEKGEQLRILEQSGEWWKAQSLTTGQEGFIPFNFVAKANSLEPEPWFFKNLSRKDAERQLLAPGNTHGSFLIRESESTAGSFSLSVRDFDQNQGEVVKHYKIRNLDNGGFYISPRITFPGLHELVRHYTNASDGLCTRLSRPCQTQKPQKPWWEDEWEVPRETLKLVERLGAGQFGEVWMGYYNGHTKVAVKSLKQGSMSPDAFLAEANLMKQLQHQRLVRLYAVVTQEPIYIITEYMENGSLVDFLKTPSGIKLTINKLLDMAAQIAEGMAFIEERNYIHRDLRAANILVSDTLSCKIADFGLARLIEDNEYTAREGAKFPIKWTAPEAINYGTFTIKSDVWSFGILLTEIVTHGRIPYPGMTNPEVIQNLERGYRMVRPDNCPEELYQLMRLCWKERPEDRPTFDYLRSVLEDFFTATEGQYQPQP
T2 sequence (P12931 whole entry): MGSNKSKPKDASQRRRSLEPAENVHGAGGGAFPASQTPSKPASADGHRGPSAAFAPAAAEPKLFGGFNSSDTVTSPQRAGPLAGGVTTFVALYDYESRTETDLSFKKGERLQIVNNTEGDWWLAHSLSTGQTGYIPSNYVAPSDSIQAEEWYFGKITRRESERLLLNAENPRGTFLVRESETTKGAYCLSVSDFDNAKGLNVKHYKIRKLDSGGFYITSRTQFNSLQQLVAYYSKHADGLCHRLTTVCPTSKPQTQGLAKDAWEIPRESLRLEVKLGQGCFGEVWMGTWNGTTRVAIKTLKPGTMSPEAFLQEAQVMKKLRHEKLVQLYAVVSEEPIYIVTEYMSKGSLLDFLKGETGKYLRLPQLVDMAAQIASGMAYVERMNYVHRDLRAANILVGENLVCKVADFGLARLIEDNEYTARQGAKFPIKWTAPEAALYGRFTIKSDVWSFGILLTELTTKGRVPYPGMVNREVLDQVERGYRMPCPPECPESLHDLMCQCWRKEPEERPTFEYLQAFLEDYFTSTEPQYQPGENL

Row | Structure (SMILES) | GI50 [2] | IC50 [3] | melting point | IC50 [1, 4] [µM] | IC50 [1, 5] | IC50 [1, 6] [µM] | IC50 [1, 7] [µM]
1 | CCN1CCN(Cc2ccc(-c3cc4ncc(C#N)c(Nc5cc(OC)c(Cl)cc5Cl)c4s3)cc2)CC1 [Example 70, 7-[(2,4-dichloro-5-methoxyphenyl)amino]-2-{4-[(4-ethylpiperazin-1-yl)methyl]phenyl}thieno[3,2-b]pyridine-6-carbonitrile] | 0.12 µM and 0.11 µM | 0.0073 µM and 0.0092 µM | 198 to 200 °C | 0.68 | 0.58 µM |  | 
2 | COc1cc(Nc2c(C#N)cnc3cc(-c4ccc(N(C)C)cc4)sc23)c(Cl)cc1Cl [Example 73, 7-[(2,4-dichloro-5-methoxyphenyl)amino]-2-[4-(dimethylamino)phenyl]thieno[3,2-b]pyridine-6-carbonitrile] | 1.2 µM and 1.1 µM | 0.12 µM and 0.094 µM | 255 to 258 °C | 1.4 | 1.1 µM |  | 
3 | COc1cc(Nc2c(C#N)cnc3cc(-c4cccc(CN(C)C)c4)sc23)c(Cl)cc1Cl [Example 75, 7-[(2,4-dichloro-5-methoxyphenyl)amino]-2-{3-[(dimethylamino)methyl]phenyl}thieno[3,2-b]pyridine-6-carbonitrile] | 0.32 µM and 0.27 µM | 0.0263 µM and 0.0347 µM | 204 to 206 °C |  |  | 1.5 | 0.97
4 | COc1cc(Nc2c(C#N)cnc3cc(-c4csc(CN(C)C)c4)sc23)c(Cl)cc1Cl [Example 80, 7-[(2,4-dichloro-5-methoxyphenyl)amino]-2-{5-[(dimethylamino)methyl]thien-3-yl}thieno[3,2-b]pyridine-6-carbonitrile] | 0.074 µM and 0.073 µM | 0.013 µM and 0.014 µM | 184 to 186 °C | 0.79 | 0.58 µM |  | 
5 | COc1cc(Nc2c(C#N)cnc3cc(-c4ccsc4CN4CCN(C)CC4)sc23)c(Cl)cc1Cl [Example 84, 7-[(2,4-dichloro-5-methoxyphenyl)amino]-2-{2-[(4-methylpiperazin-1-yl)methyl]thien-3-yl}thieno[3,2-b]pyridine-6-carbonitrile] | 3.4 µM | 0.32 µM and 0.58 µM and 0.347 µM | 218 to 219 °C | 3.3 |  |  | 
6 | COCCNCc1ccc(-c2cc3ncc(C#N)c(Nc4cc(OC)c(Cl)cc4Cl)c3s2)cc1 [Example 92, 7-[(2,4-dichloro-5-methoxyphenyl)amino]-2-(4-{[(2-methoxyethyl)amino]methyl}phenyl)thieno[3,2-b]pyridine-6-carbonitrile] | 0.145 µM and 0.103 µM | 0.0088 µM and 0.011 µM | 162 to 164 °C |  |  | 0.829 | 0.486
7 | COc1cc(Nc2c(C#N)cnc3cc(-c4ccc(CN5CCSCC5)cc4)sc23)c(Cl)cc1Cl [Example 94, 7-[(2,4-dichloro-5-methoxyphenyl)amino]-2-[4-(thiomorpholin-4-ylmethyl)phenyl]thieno[3,2-b]pyridine-6-carbonitrile] | 0.932 µM and 0.907 µM and 1.17 µM | 0.058 µM and 0.046 µM | 198 to 201 °C | 5.52 | 2.92 µM and 3.17 µM |  | 
8 | CCCCNCc1ccc(-c2cc3ncc(C#N)c(Nc4cc(OC)c(Cl)cc4Cl)c3s2)cc1 [Example 104, 2-{4-[(butylamino)methyl]phenyl}-7-[(2,4-dichloro-5-methoxyphenyl)amino]thieno[3,2-b]pyridine-6-carbonitrile] | 0.252 µM and 0.235 µM | 0.01 µM and 0.012 µM | 167 to 169 °C |  |  | 0.837 | 0.939
9 | COc1cc(Nc2c(C#N)cnc3cc(-c4ccc(CN5CCS(=O)(=O)CC5)cc4)sc23)c(Cl)cc1Cl [Example 111, 7-[(2,4-dichloro-5-methoxyphenyl)amino]-2-{4-[(1,1-dioxidothiomorpholin-4-yl)methyl]phenyl}thieno[3,2-b]pyridine-6-carbonitrile] | 0.283 µM and 0.428 µM | 0.016 µM |  |  |  | 0.572 | 0.411
10 | COc1cc(Nc2c(C#N)cnc3cc(-c4cccc(CN(C)C)n4)sc23)c(Cl)cc1Cl [Example 128, 7-[(2,4-dichloro-5-methoxyphenyl)amino]-2-{6-[(dimethylamino)methyl]pyridin-2-yl}thieno[3,2-b]pyridine-6-carbonitrile] | 0.539 µM and 0.557 µM | 0.066 µM and 0.069 µM | 221 to 223 °C |  |  |  | 
11 | COc1cc(Nc2c(C#N)cnc3cc(-c4coc(CN5CCN(C)CC5)c4)sc23)c(Cl)cc1Cl [Example 137, 7-[(2,4-dichloro-5-methoxyphenyl)amino]-2-{5-[(4-methylpiperazin-1-yl)methyl]-3-furyl}thieno[3,2-b]pyridine-6-carbonitrile] | 0.067 µM and 0.053 µM |  | 189 to 192 °C |  |  | 0.303 | 0.211
12 | COc1cc(Nc2c(C#N)cnc3c(-c4ccc(C=O)cc4)csc23)c(Cl)cc1Cl [Example 140, 7-[(2,4-Dichloro-5-methoxyphenyl)amino]-3-(4-formylphenyl)thieno[3,2-b]pyridine-6-carbonitrile] | > 10 µM |  | 268 °C (dec.) |  |  | 8.46 | 8.58

Further lines, with some results ahead:

Row | GI50 [2] | IC50 [3] | melting point | Structure (SMILES) | IC50 [1, 4] [µM] | IC50 [1, 5] | IC50 [1, 6] [µM] | IC50 [1, 7] [µM]
13 | 0.12 µM and 0.077 µM | 0.0094 µM and 0.015 µM |  | COc1cc(Nc2c(C#N)cnc3cc(-c4ccc(CN(C)CCN(C)C)cc4)sc23)c(Cl)cc1Cl [Example 72, 7-[(2,4-dichloro-5-methoxyphenyl)amino]-2-(4-{[[2-(dimethylamino)ethyl](methyl)amino]methyl}phenyl)thieno[3,2-b]pyridine-6-carbonitrile] |  |  | 1.3 | 0.7
14 | 0.341 µM and 0.276 µM | 0.015 µM and 0.016 µM | 154 to 156 °C | COc1cc(Nc2c(C#N)cnc3cc(-c4ccc(CNCCSC)cc4)sc23)c(Cl)cc1Cl [Example 93, 7-[(2,4-dichloro-5-methoxyphenyl)amino]-2-[4-({[2-(methylthio)ethyl]amino}methyl)phenyl]thieno[3,2-b]pyridine-6-carbonitrile] |  |  | 1.22 | 0.638
15 | 0.193 µM and 0.133 µM and 0.168 µM | 0.0084 µM and 0.0083 µM and 0.0069 µM and 0.0053 µM | 218 to 220 °C | COc1cc(Nc2c(C#N)cnc3cc(-c4ccc(CN5CCNCC5)cc4)sc23)c(Cl)cc1Cl [Example 95, 7-[(2,4-dichloro-5-methoxyphenyl)amino]-2-[4-(piperazin-1-ylmethyl)phenyl]thieno[3,2-b]pyridine-6-carbonitrile] |  |  |  | 
16 | 0.058 µM and 0.071 µM | 0.011 µM and 0.0096 µM | 229 to 232 °C | COc1cc(Nc2c(C#N)cnc3cc(-c4ccc(CN5CCN(C)CC5)cn4)sc23)c(Cl)cc1Cl [Example 103, 7-[(2,4-dichloro-5-methoxyphenyl)amino]-2-{5-[(4-methylpiperazin-1-yl)methyl]pyridin-2-yl}thieno[3,2-b]pyridine-6-carbonitrile] |  |  | 0.401 | 0.445
17 | 0.103 µM and 0.095 µM and 0.058 µM and 0.071 µM | 0.01 µM and 0.0066 µM | 160 to 162 °C | CCN(CC)Cc1ccc(-c2cc3ncc(C#N)c(Nc4cc(OC)c(Cl)cc4Cl)c3s2)cc1 [Example 106, 7-[(2,4-dichloro-5-methoxyphenyl)amino]-2-{4-[(diethylamino)methyl]phenyl}thieno[3,2-b]pyridine-6-carbonitrile] |  |  |  | 
18 | 0.897 µM and 1.08 µM and 1.56 µM | 0.018 µM and 0.023 µM | 211 to 213 °C | COc1cc(Nc2c(C#N)cnc3cc(-c4ccc(CN5CCN(S(C)(=O)=O)CC5)cc4)sc23)c(Cl)cc1Cl [Example 122, 7-[(2,4-dichloro-5-methoxyphenyl)amino]-2-(4-{[4-(methylsulfonyl)piperazin-1-yl]methyl}phenyl)thieno[3,2-b]pyridine-6-carbonitrile] |  |  |  | 
19 | 0.082 µM and 0.097 µM |  | 192 to 193 °C | CCN(CC)Cc1ccc(-c2cc3ncc(C#N)c(Nc4cc(OC)c(Cl)cc4Cl)c3s2)nc1 [Example 133, 7-[(2,4-dichloro-5-methoxyphenyl)amino]-2-{5-[(diethylamino)methyl]pyridin-2-yl}thieno[3,2-b]pyridine-6-carbonitrile] |  |  | 0.436 | 0.289
